Measurements taken from patent publication US20140349943A1, “TOPICAL FORMULATIONS OF CHEMERIN C15 PEPTIDES FOR THE TREATMENT OF DERMATOLOGICAL CONDITIONS” (priority 2011, published 2014).
Values belong to the compound of their own block, whether it stands above or below them. Peptide text beside a SMILES is read from it.

Legend:
[1] = test system: IFNγ/LPS stimulated human macrophages; test: Cytokine secretion by IFNγ/LPS stimulated human macrophages (Luminex); format: cell-based
Description: In this example, the ability of human chemerin C15 to inhibit secretion of cytokines from activated human macrophages was examined. For this experiment, the activity of the human chemerin C15 peptide […] (SEQ ID NO: 1) was compared to that of the human chemerin C17 peptide […] (SEQ ID NO: 25). The C15 and C17 peptides were synthesized by solid phase synthesis using BOP coupling of FMOC protected amino acids with final cleavage from the resin with TFA. Peptides were purified by reverse phase C18 chromatography using a water/acetonitrile gradient.
Human macrophages were derived from human CD14+ monocytes obtained from 3 donors. On Day 1, the isolated monocytes were thawed and seeded in triplicate for each group in 1 ml RPMI 1640 GlutaMAX™ media (supplemented with 10% FBS, 100 U/ml penicillin, 100 μg/ml streptomycin, 0.05 μM mercaptoethanol, 1% NEAA and 1% sodium pyruvate) per well of a 24 well cell culture dish at a cell concentration of 5×10^5 cells/ml. M-CSF was added to each well to give a final concentration of 25 ng/ml. Cells were grown for 7 days at 37° C. with 5% CO2 to differentiate the cells into macrophages. Media and M-CSF were replaced after 4 days.
Following differentiation, the media containing M-CSF was removed. The cells were washed and vehicle control, dexamethasone, C15 or C17 were added to the appropriate wells. The test peptides were dissolved in 50% DMSO/water prior to addition. C-15 (MW 1669; 16.7 mg/ml) was added to a final concentration of […] and C17 (MW 1904; 19.0 mg/ml) was added to a final concentration of 1 μM. Dexamethasone was added to a final concentration of 1 μM. Following addition to the wells, the plates were incubated at 37° C. with 5% CO2 for 1 hour. An equal volume of complete media was added to the non-treated wells. Control or test treatments were maintained at the correct concentration throughout the assay.
IFNγ (final concentration 20 ng/ml) was then added to the appropriate wells. Following IFNγ addition, the plates were incubated at 37° C. with 5% CO2 for 4 hours. The concentration of vehicle control, test treatments or dexamethasone was maintained during IFNγ stimulation. LPS (final concentration 10 ng/ml) was then added to the appropriate wells. Following LPS addition, the plates were incubated at 37° C. with 5% CO2 for 15 hours. After 6 hours, ˜60 μl of culture supernatant was removed from all wells and stored at −80° C. for analysis. The concentration of vehicle control, test treatments or dexamethasone was maintained during LPS stimulation.
At 15 hours post LPS stimulation, the remaining cell culture supernatant was harvested and stored at −80° C. until assayed. The concentration of vehicle control, test treatments or dexamethasone was maintained until culture termination.
Cell culture supernatants taken at 6 hours and 15 hours post LPS addition were assayed for the production of RANTES, TNFα, IL-1β, IL-6, IL-10, IL-12p40 (subunit common to IL-12 and IL-23) and IL-15 (negative control) using Luminex® technology (Procarta human cytokine kit; Panomics) following the manufacturer's instructions.
In this experiment, the importance of the FYFP motif (SEQ ID NO: 2) in the human chemerin C15 peptide on anti-inflammatory activity was examined. The ability of the human chemerin C15 peptide […] (SEQ ID NO: 1) was compared to that of a substituted chemerin C15 peptide having the amino acid sequence […] (SEQ ID NO: 27), where the second phenylalanine in the peptide is modified to alanine. The experiment was performed as described in Example 1. 0.1 pM 0.5 pM and 1 pM concentrations of the C15 and C15 mutant peptides were tested. Cytokine expression was determined as described in Example 1.

GPR1 = target: T1, GPR1 (Homo sapiens, UniProt P46091); test: PathHunter β-Arrestin assay, GPR1, agonist and antagonist mode; format: cell-based; settings: for agonist activity, in words: FIG. 2A/2B
T1 construct: host or cells: CHO
T1 sequence (P46091 1-355): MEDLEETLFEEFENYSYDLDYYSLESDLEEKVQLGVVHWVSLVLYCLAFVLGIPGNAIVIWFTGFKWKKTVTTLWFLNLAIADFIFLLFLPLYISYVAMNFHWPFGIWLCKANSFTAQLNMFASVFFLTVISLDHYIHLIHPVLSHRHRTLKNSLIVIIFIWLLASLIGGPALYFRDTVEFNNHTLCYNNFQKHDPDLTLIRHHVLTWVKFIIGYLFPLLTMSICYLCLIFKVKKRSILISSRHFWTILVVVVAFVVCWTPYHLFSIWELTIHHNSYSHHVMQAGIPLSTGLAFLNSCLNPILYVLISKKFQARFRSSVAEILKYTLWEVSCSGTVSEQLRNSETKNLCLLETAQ
Protocol: (§1) The DiscoveRx PathHunter™ eXpress GPCR activity assay was employed to test agonist and antagonist activities of the chemerin peptides against the GPCRs ChemR23 and GPR1. Two assay formats were tested, the PathHunter β-Arrestin assay and the Hit Hunter cAMP Hunter assay.
(§2) The PathHunter β-Arrestin assay monitors the activation of a GPCR in a homogenous, non-imaging assay format using a technology developed by DiscoveRx called complementation, which utilizes an enzyme fragment complementation (EFC) assay with β-galactosidase (β-Gal) as the functional reporter. The enzyme is split into two complementary portions expressed as fusion proteins in the cell. The Enzyme Acceptor (EA) is fused to β-Arrestin and the ProLink donor peptide is fused to the GPCR of interest. Upon GPCR stimulation, β-Arrestin is recruited to the receptor for desensitization, bringing the two fragments of β-Gal together and allowing complementation to occur.
(§3) The assay involves CHO cell lines that express 1) a GPCR of interest (e.g. ChemR23 or GPR1) that has a fragment of the βgal enzyme fused to the C-terminus of the receptor and 2) a β-arrestin fused to the main β-gal enzyme. When the agonist binds to the receptor, β-arrestin is recruited to the receptor and the β-gal enzyme is complemented by the fragment from the GPCR thus forming a functional β-gal enzyme. A substrate is then added and luminescence is generated to detect β-arrestin recruitment.
(§4) The protocol used was a standard protocol employed by DiscoveRx PathHunter™ profiling service. […] Once it was established that the cells were healthy and growing normally, cells were passaged from flasks using cell dissociation reagent and seeded into white walled clear bottom 384-well microplates for compound profiling. For profiling, cells were seeded at a density of 5000 cells per well in a total volume of 20 μL and were allowed to adhere and recover overnight prior to compound addition.
(§5) For the agonist assay, intermediate dilution of compound stocks were generated such that 5 μL of 5× compound could be added to each well with a final DMSO concentration of 1% of total volume. For profiling compound in agonist mode, the cells were incubated in the presence of compound at 37° C. for 90 minutes.
(§6) For the antagonist assay, agonist dose curves were performed the morning of profiling to determine the EC80 value for the following antagonist testing with compounds. 5 μL of 5× agonist (i.e. chemerin) was added to each well with an equal concentration of vehicle present. EC80 agonist concentration was determined directly from agonist dose curve. For antagonist determination, cells were preincubated with antagonist followed by agonist challenge at the EC80 concentration: 4. 5 μL of 5× compound added to cells and incubated at 37° C. for 30 minutes. 5. 5 μL of 6× EC80 agonist added to cells and incubated at 37° C. for 90 minutes.
(§7) Microplates were read following signal generation with a PerkinElmer Envision™ instrument for chemiluminescent signal detection
(§8) Dose curves in the presence and absence of compound were plotted using GraphPad Prism or Activity Base. For agonist mode assays, percentage activity was calculated using the following formula: % Activity=100%×(Mean RLU of test sample−mean RLU of vehicle control)/(mean MAX RLU control ligand−mean RLU of vehicle control)). For antagonist mode assays, percentage inhibition was calculated using the following formula: % Inhibition=100%×(1−(Mean RLU of test sample−mean RLU of vehicle control)/(mean RLU of EC80 control−mean RLU of vehicle control)).

ChemR23 (CMKLR1) = target: T2, ChemR23 (CMKLR1) (Homo sapiens, UniProt Q99788); test: PathHunter β-Arrestin assay, ChemR23 (CMKLR1), agonist and antagonist mode; format: cell-based
T2 construct: host or cells: CHO
T2 sequence (Q99788 1-373): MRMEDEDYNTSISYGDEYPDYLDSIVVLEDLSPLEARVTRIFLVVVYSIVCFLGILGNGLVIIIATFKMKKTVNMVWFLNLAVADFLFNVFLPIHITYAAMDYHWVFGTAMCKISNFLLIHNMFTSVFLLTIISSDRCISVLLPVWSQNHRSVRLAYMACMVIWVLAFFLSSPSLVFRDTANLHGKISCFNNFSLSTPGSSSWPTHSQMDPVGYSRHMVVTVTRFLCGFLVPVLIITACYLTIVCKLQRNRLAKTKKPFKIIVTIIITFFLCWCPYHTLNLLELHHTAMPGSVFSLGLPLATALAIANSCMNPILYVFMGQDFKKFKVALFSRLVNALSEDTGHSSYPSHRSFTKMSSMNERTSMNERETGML
Protocol: as §1, §2, §3, §4, §5, §6, §7, §8

mChemR23 = target: T3, mChemR23 (Mus musculus, UniProt P97468); test: PathHunter β-Arrestin assay, mouse ChemR23; format: cell-based
T3 construct: host or cells: CHO (stated generally for the PathHunter assay)
T3 sequence (P97468 1-371): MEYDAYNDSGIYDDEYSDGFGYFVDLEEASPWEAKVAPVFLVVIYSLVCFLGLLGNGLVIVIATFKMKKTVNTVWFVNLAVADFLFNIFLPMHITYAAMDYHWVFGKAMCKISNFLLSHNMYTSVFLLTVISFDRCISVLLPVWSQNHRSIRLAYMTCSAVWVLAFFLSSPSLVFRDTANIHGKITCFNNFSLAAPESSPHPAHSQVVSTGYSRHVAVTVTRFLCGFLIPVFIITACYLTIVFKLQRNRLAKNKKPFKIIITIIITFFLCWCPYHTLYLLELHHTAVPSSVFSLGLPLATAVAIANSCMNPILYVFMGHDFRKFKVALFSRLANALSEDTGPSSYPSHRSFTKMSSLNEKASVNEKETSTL
Protocol: as §1, §2, §3, §4, §5
as §6, with “5 μL of 6× EC80 agonist added to cells and incubated at 37° C. for 90 minutes.” left out
as §7, §8

ChemR23 = target: T4, ChemR23 (Homo sapiens, UniProt Q99788); test: Hit Hunter cAMP Hunter assay, human ChemR23; format: cell-based
T4 sequence (Q99788 1-373): T2 sequence (Q99788 1-373)
Protocol: as §1
as §4, with “reagent buffer” for “reagent”, “10000” for “5000”, “addition. Cells were treated the following day using the protocols shown below. cAMP modulation was determined using the DiscoveRx HitHunter cAMP XS+ assay.” for “addition.”
For profiling compound in agonist mode, the cells were incubated in the presence of compound at 37° C. for 30 minutes.
EC80 agonist concentration was determined directly from agonist dose curve.
Microplates were read following signal generation with a PerkinElmer Envision™ instrument for chemiluminescent signal detection.
Dose curves in the presence and absence of compound were plotted using GraphPad Prism or Activity Base.

psoriasis patients = settings: cited from earlier work
[2] = Example 3, 0.1 pM 0.5 pM and 1 pM tested, FIG. 3

Compound: AGEDPHGYFAPGQFA [mutant C15 polypeptide]
percent inhibition of RANTES expression [1, 2]: unable to inhibit expression
percent inhibition of TNFα expression [1, 2]: unable to inhibit expression

Compound: C[C@H](N)C(=O)NCC(=O)N[C@@H](CCC(=O)O)C(=O)N[C@@H](CC(=O)O)C(=O)N1CCC[C@H]1C(=O)N[C@@H](Cc1c[nH]cn1)C(=O)N[C@@H](CO)C(=O)N[C@@H](Cc1ccccc1)C(=O)N[C@@H](Cc1ccc(O)cc1)C(=O)N[C@@H](Cc1ccccc1)C(=O)N1CCC[C@H]1C(=O)NCC(=O)N[C@@H](CCC(N)=O)C(=O)N[C@@H](Cc1ccccc1)C(=O)N[C@@H](C)C(=O)N[C@@H](Cc1ccccc1)C(=O)O [C16 (human)] (H-AGEDPHSFYFPGQFAF-OH; N-terminus and C-terminus assumed)
IC50 (GPR1): > 10 µM
agonist activity, in words (GPR1; GPR1): exhibited agonist activity
Rank Order (GPR1; GPR1, agonist): 2
% Max Activity (GPR1; GPR1, agonist mode): 87.9%
% Max Inhibition (GPR1; GPR1, antagonist mode, chemerin at EC80): 0%
IC50 (ChemR23 (CMKLR1)): > 10 µM
Rank Order (ChemR23 (CMKLR1); ChemR23, agonist): 1
% Max Activity (ChemR23 (CMKLR1); ChemR23, agonist mode): 98.6%
% Max Inhibition (ChemR23 (CMKLR1); ChemR23, antagonist mode, chemerin at EC80): 0%
agonist activity, in words (ChemR23 (CMKLR1); human ChemR23, FIG. 2A/2B): exhibited agonist activity
IC50 (mChemR23): > 10 µM
IC50 (ChemR23): > 10 µM

Compound: Stelara: approved systemic mono-clonal antibody for psoriasis, clears IL-23
time of maximal serum concentrations (psoriasis patients; post-injection): 5 days
improvement in PASI score (psoriasis patients; within two weeks after a single dose): 50%

agonist activity, in words (GPR1; GPR1): potent agonist activity
EC50 (mChemR23; Arrestin, Agonist, mChemR23, read-out: RC50 (uM), EC50): 0.00154 µM
Compound: hrChemerin: chemerin protein, control agonist of ChemR23 and GPR1

Compound: C[C@@H]1C[C@H]2[C@@H]3CCC4=CC(=O)C=C[C@]4(C)[C@@]3(F)[C@@H](O)C[C@]2(C)[C@@]1(O)C(=O)CO [Dexamethasone]
inhibition of IL-1β secretion ([1]; 1 μM dosage): approximately 30%
inhibition of RANTES secretion ([1]; 1 μM dosage): ~50%
inhibition at 1 µM ([1]; Homo sapiens, Macrophage, dexamethasone 1 μM, read-out: inhibition of the production of IL-10): ~70%
